Results as given in patent US20230210770A1, “TOPICAL OPHTHALMOLOGICAL COMPOSITIONS AND METHODS FOR TREATING ABNORMAL ANGIOGENESIS” (ADS THERAPEUTICS LLC, priority 2020, published 2023).
In brackets after ≈: the same amount, converted by molar mass.

Tests used:
[1] = cited from earlier work
[2] = Regorafenib concentration and degradation in F6H8 suspension by HPLC; type: physicochemical
Experimental: The Suspension was homogenized by stirring at room temperature for 15 minutes. […] The observed fluctuation was most likely due to inhomogeneity of the sample after manual shaking of the suspension.
[…] were injected into an Agilent 1100 HPLC system (Agilent, Waldbronn, Germany), and samples were run on a heated (40° C.) Symmetry C18 column (150×4.6 mm-3.5 um particle size, Waters, Eschborn, Germany) applying a flow rate of 1 ml/min. The mobile phase consisted of a mixture of potassium phosphate buffer pH 2.4 (A) and acetonitrile/ethanol (6/4) (B). The following gradient was applied: minute 0: A, 60%/B, 40%: minute 12: A, 20%/B, 80%: minute 16: A, 20%/B, 80%: minute 16.5: A, 60%/B, 40%: minute 20: A, 60%/B, 40%.

[3] = Solubility in water (reported); type: physicochemical
[4] = Solubility of nintedanib in various solubilizers; type: physicochemical
Experimental: Tare 1.5 mL Eppendorf tube 2. […] Add solubilizer and record weight 4. Add water pH 5 (except F3 & F4) and record weight 5. Beadbeater mix for 120 seconds 6. Place on rotating mixer for overnight at ambient temperature 7. Filter through 0.2 μm SPIN-X centrifuge filter 8. Measure pH of filtrate 9. Assay filtrate using CBT-001 standard solution [table]

[5] = Solubility of nintedanib in a representative water-based emulsion system; type: physicochemical; conditions: for solubility: water-based emulsion, aqueous with cosolvent or surfactant or cyclodextrin, Nintedanib solubility
[6] = system: rabbit glaucoma filtration surgery model; assay: Rabbit glaucoma filtration surgery model; type: in vivo, New Zealand White rabbits; conditions: vs vehicle
[7] = water-based emulsion of castor oil, polysorbate 80 and polyoxyl-35 castor oil

SMILES: CNC(=O)c1ccccc1Sc1ccc2c(/C=C/c3ccccn3)n[nH]c2c1 [Axitinib, axitinib]
- solubility in water ([1]; water at neutral pH): 200 µg/mL (≈ 0.517 mM)

SMILES: CNC(=O)c1cc(Oc2ccc(NC(=O)Nc3ccc(Cl)c(C(F)(F)F)c3)c(F)c2)ccn1 [Regorafenib, regorafenib]
- degradation products in HPLC chromatograms ([2]; 400 mg micronized regorafenib monohydrate suspended in 20 ml F6H8): No unidentified degradation product was observed
- Measured regorafenib concentration, % of theoretical concentration ([2]; 400 mg micronized regorafenib monohydrate suspended in 20 ml F6H8, HPLC): 95.4-99.1%

SMILES: COC(=O)c1ccc2c(c1)NC(=O)/C2=C(\Nc1ccc(N(C)C(=O)CN2CCN(C)CC2)cc1)c1ccccc1 [Nintedanib, nintedanib]
- reported solubility in water, as percent [3]: < 0.001%
- Nintedanib solubility ([4]; solubilizer BZA, filtrate pH 5.6): 0.01 mg/g
- Nintedanib solubility ([4]; solubilizer BZK, filtrate pH 5.6): 0.20 mg/g
- Nintedanib solubility ([4]; solubilizer Castor oil): 0.37 mg/g
- Nintedanib solubility ([4]; solubilizer EtOH, filtrate pH 6.1): 0.01 mg/g
- Nintedanib solubility ([4]; solubilizer Mineral oil): 0.00 mg/g
- Nintedanib solubility ([4]; solubilizer PEG 400, filtrate pH 5.6): 0.17 mg/g
- Nintedanib solubility ([4]; solubilizer PEG 8000, filtrate pH 6.0): 0.01 mg/g
- Nintedanib solubility ([4]; solubilizer PG, filtrate pH 6.0): 0.01 mg/g
- Nintedanib solubility ([4]; solubilizer PLXMR 188, filtrate pH 6.5): 0.01 mg/g
- Nintedanib solubility ([4]; solubilizer PLXMR 407, filtrate pH 6.3): 0.01 mg/g
- Nintedanib solubility ([4]; solubilizer polysorbate 20, filtrate pH 6.6): 0.06 mg/g
- Nintedanib solubility ([4]; solubilizer polysorbate 80, filtrate pH 6.7): 0.25 mg/g
- nintedanib dissolved by the emulsion system [5, 7]: 3 to 5 mg/mL
- ophthalmic emulsion concentration of nintedanib [5, 7]: 0.3%-0.5
- solubility ([5]; emulsion F70 lot 1: castor oil 1, polysorbate 80 1, polyoxyl-35 castor oil 2, water 95): 5000 µg/mL (≈ 9.27 mM)
- solubility ([5]; emulsion F70 lot 2: castor oil 1, polysorbate 80 1, polyoxyl-35 castor oil 2, water 95): 3400 µg/mL (≈ 6.3 mM)
- fibroblast density ([6]; group 3: 0.3% emulsion BID minus Day 7-Day 30, rabbit): trend of reduction not statistically significant
- fibroblast density ([6]; group 4: 0.3% emulsion BID Day 1-Day 30, rabbit): significant reduction
- reported solubility in water ([1]; water): less than 0.01 mg/mL
